Laboratory results reported in patent US6627772B2, “Preparation of N-[2-(carboxymethoxy) ethyl]-N-(carboxymethyl) glycine” (The Dow Chemical Company, priority 1999, dated 2003).

Assays:
[1] = Calcium oxalate titration (calcium chelation capacity); assay type: physicochemical
Protocol: The applicability of N-[2-(carboxymethoxy)ethyl]-N-(carboxymethyl)glycine for use in hard surface cleaners, is measured by the calcium oxalate titration.
For titration with calcium oxalate, N-[2-(carboxymethoxy)ethyl]-N-(carboxymethyl)glycine (between 1 to 2 millimoles) is placed in a 60 mL beaker. After the addition of 30 mL deionized water and 5 mL of a 3% ammonium oxalate solution, the pH is slowly brought to about 10 by the addition of 20% sodium hydroxide while stirring. The pH is then adjusted to about 11.6 with sodium hydroxide and the solution is titrated with 0.1 M CaCl2 to the first permanent turbidity. The chelation valve is then determined from the mL of titrant used based on the following calculation.
Chelation Value=(mL titrant used×molarity titrant)×100 mg CaCO3 per mmole÷sample wt. in grams×activity of sample (as acid form)
The chelation value is the mg of CaCO3 that can be chelated by one active gram of a chelant, such as N-[2-(carboxymethoxy)ethyl]-N-(carboxymethyl)glycine (IX).
The turbidity produced in the oxalate titration is due to the formation of calcium oxalate. The results for the titration of N-[2-(carboxymethoxy)ethyl]-N-(carboxymethyl)glycine in the presence of oxalate is compared with iminodiacetic acid (IDA) and given in Table II below.

[2] = Copper titration with Murexide indicator; assay type: physicochemical; settings: 2 g (0.009 mmol) in 100 mL water, 0.01 molar copper chloride, approximately pH 8, sodium acetate buffer
Protocol: Copper titration value is used to measure the extent of biodegradation of the chelating agents during the procedure. Titration is performed using ammonium purpurate (indicator for complexometric titration, commercially available from Aldrich Chemical Co., Inc. under the trade designation Murexide) at approximately pH 8, and using sodium acetate as buffer. Titration of […] N-[2-(carboxymethoxy)ethyl]-N-(carboxymethyl)glycine (0.009 mmol) in 100 mL water with 0.01 molar copper chloride gives an endpoint of 0.99 mL, representing a 1:1 chelation of copper. Analysis is performed daily for a period of 28 days.

Chelation value compared with IDA (in words) [1]: far superior to IDA
Chelation Value ([1]; pH about 11.6, 0.1 M CaCl2 to first permanent turbidity): 423 mg of CaCO3 per active gram of
Copper titration endpoint [2]: 0.99 mL
Compound: O=C(O)COCCN(CC(=O)O)CC(=O)O [(IX), N-[2-(carboxymethoxy)ethyl]-N-(carboxymethyl)glycine]
